Assays:
[1] = test system: HCT116 cells expressing E. coli NfsA; format: cell-based, human; conditions: 18 hrs exposure, 5 days regrowth; IC50 of WT versus NTR-expressing cells
Protocol: (§1) FIGS. 10 (B) and 10 (C) illustrates the results of evaluation of 2-nitroimidazole clinical imaging candidates with E. coli and non-E. coli NTRs. Stably-expressing cells were treated with varying concentration of 2-nitroimidazole prodrugs diluted in αMEM+5% FCS+P/S. Cells were exposed to prodrug for 18 hrs, washed and left to regrow for 5 days. IC50 was determined as the concentration of prodrug required to inhibit cell growth by 50% of untreated controls. IC50 values are mean for ≥2 independent experiments. WT:NTR ratio-ratio of IC50 means from WT cells versus NTR-expressing cell lines.
as §1, with “FIG. 21” for “FIGS. 10 (B) and 10 (C)”, “antiproliferative activity (IC50 value)” for “the results”, “prodrug” for “evaluation of 2-nitroimidazole clinical imaging”, “nitroreductases.” for “NTRs.”, “prodrug” for “2-nitroimidazole prodrugs”, “ratio-interexperimental ratio” for “ratio-ratio”
Isolated NTR gene sequences were subject to PCR and introduced in the bicistronic plasmid F579 via Gateway cloning (Invitrogen) as described by Prosser et al. (2010, Biochem Pharmacol, 79, 678-687). Stably transfected cell lines were created by transfection of the relevant plasmid using FuGENE 6 Transfection Reagent (Roche). Transfected cell populations were maintained by passage in puromycin
Cells were passaged in alpha-Minimal Essential Media, (αMEM; Gibco) supplemented with 5% FBS, (GIBCO NZ) without antibiotics. Cell were passaged for <3 months from frozen stocks and confirmed Mycoplasma free (PCR-ELISA; Roche Diagnostics). Cells were aliquoted into the 96-well plate (100 μL/well) and cells were left to attach (≥4 hrs). […] Plates were read on an ELx 808 Absorbance Microplate Reader (Bio-Tek Instruments). Absorbance was measured at 490 nm and 450 nm (final absorbance 490-450). […]

[2] = test system: HCT-116 cells expressing human cytochrome P450 reductase (CYPOR); assay: Flow cytometry of EF5 retention in vitro; format: cell-based; conditions: increasing EF5 concentrations, oxic, monolayer
Protocol: In vitro: 1×10^6 cells were drug treated (EF5 or PIMO) for 1-2 hrs, harvested by trypsinisation, fixed with 4% buffered PFA (pH 7.4, 1 hr). In vivo: Tumour xenograft cells were isolated by enzymatic dissociation (2.5 mg/ml pronase, 1 mg/ml collagenase and 0.2 mg/ml DNAse) and immediately fixed with 4% buffered PFA (pH 7.4, 1 hr). and transferred to 70% ethanol (−20° C., overnight). Cells were resuspended in 1% BSA/PBS and permeabilised with 0.2% Triton X-100 (30 min, RT), blocked in 10% BSA/PBS (30 min, RT) and resuspended in primary antibody for 2 hr (37° C.). The primary antibody was either anti-EF5 mouse monoclonal (ELK 3.51) conjugated with CY5 or Alexa-488 diluted to 100 μg/ml in blocking buffer (according to instruction in Koch C., 2008, Rad Res, 169 (6): 677-688) or Hypoxyprobe-1 (Chemicon Int) mouse monoclonal anti-pimonidazole antibody (clone 4.3.11.3) conjugated with FITC and diluted 1:100 in blocking buffer. Cells were washed in blocking buffer and resuspended in blocking buffer containing 100 μg/ml RNAase and analysed using a Becton Dickinson FACscan flow cytometer (MA, USA) with Cell Quest software using forward scatter and side scatter to gate out cell debris and tumour cells. Integrated fluorescence measurements were recorded for 30,000 single non-debris events.

[3] = target: T1, E. coli NfsA (Escherichia coli, UniProt P17117); assay: Purified enzyme kinetics (NADPH oxidation at 340 nm); format: biochemical; conditions: 0.25 mM NADPH, varying EF5
T1 construct: his6; made in house
T1 sequence (P17117 whole entry): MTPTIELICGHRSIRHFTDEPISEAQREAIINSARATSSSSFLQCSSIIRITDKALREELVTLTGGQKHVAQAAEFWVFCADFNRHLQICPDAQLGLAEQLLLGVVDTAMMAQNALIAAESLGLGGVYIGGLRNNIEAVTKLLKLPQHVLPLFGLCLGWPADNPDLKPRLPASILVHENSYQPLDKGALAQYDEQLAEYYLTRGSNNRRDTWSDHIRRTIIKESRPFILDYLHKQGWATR
Protocol: FIG. 12 illustrates the purified enzyme kinetic data for eleven E. coli nitroreductases with EF5 as a substrate. Reactions contained 10 mM Tris-Cl (pH 7.0), 4% DMSO, 0.25 mM NADPH and varying EF5 concentrations. Reactions were initiated by addition of 10 μl enzyme and changes in absorbance were measured for 15 s at 340 nm on a spectrophotometer to monitor NTR-catalysed NADPH oxidation.
For EF5 and other 2-NI bio-imaging agents, steady-state enzyme kinetics with purified NTRs were assessed spectrophotometrically at 340 nm to monitor NTR catalyzed NADPH oxidation. The molar extinction co-efficient of NADPH (6,220 M^−1 cm^−1) was used for the calculation of enzyme activity. For PR-104A, reduction was measured directly at 400 nm (ε=6,000 M^−1 cm^−1); and for CB1954, reduction was measured directly at 420 nm (ε=1,200 M^−1 cm^−1). Reactions were performed in 100 μl in UVettes (Eppendorf), using the 2 mm light path length. Reactions contained 10 mM Tris-Cl (pH 7.0), 4% DMSO, 0.25 mM NADPH and varying EF5 or PR-104A concentrations. Reactions were initiated by addition of 10 μl enzyme and changes in absorbance were measured for 15 s (during linearity). For calculation of Km and kcat, substrate concentrations were varied from ˜0.2×Km to 5×Km. Non-linear regression analysis and Michaelis-Menten curve fitting was performed using Sigmaplot 10.0 (Systat Software Inc.).

## O=C(Cn1ccnc1[N+](=O)[O-])NCC(F)(F)C(F)(F)F [EF5, 2-(2-nitro-1H-imidazol-1-yl)-N-(2,2,3,3,3-pentafluoropropyl)acetamide]
[1]
  WT:NTR ratio (maximum growth inhibitory effect): 1600 fold
[2]
  activity towards EF5, dose-response (in words): minimal activity
[3]
  enzyme kinetics with EF5 as substrate, rank among 11 E. coli NTRs (in words): highest kcat and kcat/Km ratio
